Patent publication US20260125359A1, “HETEROARYL COMPOUNDS AS MULTI-TARGET PROTEIN KINASE INHIBITORS” (FUJIAN HAIXI PHARMACEUTICALS CO., LTD., priority 2023, published 2026)

How the values were obtained:
CSF-1R = CSF-1R (Homo sapiens, UniProt P07333); assay: CSF-1R in vitro kinase activity assay (HTRF kinEASE TK); type: biochemical; settings: for inhibition at 0.01 µM: compound 10 nM, read-out: CSF-1R inhibition rate, 10 nM; for inhibition at 0.1 µM: compound 100 nM, read-out: CSF-1R inhibition rate, 100 nM
Sequence of CSF-1R (P07333 20-972): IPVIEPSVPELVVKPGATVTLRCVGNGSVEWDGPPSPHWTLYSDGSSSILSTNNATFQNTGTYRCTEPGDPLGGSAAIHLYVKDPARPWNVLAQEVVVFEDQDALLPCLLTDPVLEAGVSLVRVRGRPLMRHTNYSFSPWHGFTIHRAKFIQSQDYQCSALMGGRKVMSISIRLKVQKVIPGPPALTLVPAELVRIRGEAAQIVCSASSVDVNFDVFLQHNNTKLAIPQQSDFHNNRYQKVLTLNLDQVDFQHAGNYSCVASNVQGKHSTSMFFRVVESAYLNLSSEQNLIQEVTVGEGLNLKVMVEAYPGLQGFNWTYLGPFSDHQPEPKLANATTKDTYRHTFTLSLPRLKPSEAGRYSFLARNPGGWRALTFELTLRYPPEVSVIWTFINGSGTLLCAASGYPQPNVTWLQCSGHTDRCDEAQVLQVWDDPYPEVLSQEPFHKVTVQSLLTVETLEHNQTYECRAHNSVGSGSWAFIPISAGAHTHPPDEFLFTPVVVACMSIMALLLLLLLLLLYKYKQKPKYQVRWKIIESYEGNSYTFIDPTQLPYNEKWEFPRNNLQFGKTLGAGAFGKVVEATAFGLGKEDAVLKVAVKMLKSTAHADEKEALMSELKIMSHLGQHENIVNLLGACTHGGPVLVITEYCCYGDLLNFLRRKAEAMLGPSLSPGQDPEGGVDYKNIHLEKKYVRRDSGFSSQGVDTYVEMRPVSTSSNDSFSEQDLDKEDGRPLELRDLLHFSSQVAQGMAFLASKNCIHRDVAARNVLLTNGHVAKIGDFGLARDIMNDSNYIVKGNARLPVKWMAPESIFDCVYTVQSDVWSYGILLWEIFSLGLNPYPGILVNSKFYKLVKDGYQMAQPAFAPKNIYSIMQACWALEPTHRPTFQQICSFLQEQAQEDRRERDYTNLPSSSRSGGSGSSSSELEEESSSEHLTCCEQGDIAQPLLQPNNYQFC
From the text: (§1) CSF-1R, PDGFR-α, KDR (VEGFR2) and KIT in vitro Kinase Activity Assay:
(§2) • ENVISION (Perkinelmer, 2104) • White 384-well MicroPlate (Cat #264706, Nunc) • HTRF kinEASE TK kit main reagents (Cat #62TKOPEC, Cisbio) • TK-biotin substrate • Streptavidin-XL665 • TK Antibody-Cryptate • 5× Enzymatic buffer (5×KB) • Staphylococcal enterotoxin B (SEB) • HTRF Detection buffer • CSF-1R (Cat #PV3249, Invitrogen) • PDGFR-α (Cat #PV3811, Invitrogen) • KDR (Cat #PV3660, Invitrogen) • KIT (Cat #08-156, Carna) • ATP 10 mM (Cat #PV3227, Invitrogen) • DTT 1 M (Cat #D5545, Sigma) • MgCl2 1 M (Cat #M8266, Sigma) • MnCl2 1 M (Cat #244589, Sigma)
(§3) Dilute Substrate-TK and ATP to 5× of the reaction concentration using 1× Kinase Buffer.
(§4) Prepare the 5× enzyme working solution using 1× Kinase Buffer.
(§5) Prepare the 4×Sa-XL665 working solution using Detection Buffer.
(§6) Dilute TK-Ab-Cryptate 100 times using Detection Buffer to prepare the working solution.
(§7) After all reagents were prepared according to the methods described above, except for the enzyme, they were equilibrated to room temperature before starting the sample addition. • a) First, 2.5% DMSO solutions were prepared separately using the pre-prepared 1× kinase buffer (DMSO concentrations that were too high could affect the reaction, so the final concentration of DMSO was controlled at 1%). Then, the corresponding 2.5% DMSO solution for the enzyme was used to dilute the test compounds. Compounds were screened with two concentrations of 100 nM and 10 nM. Except for the control wells, 4 μL of the diluted test compound solution was added to the reaction wells, and 4 μL of the pre-prepared 2.5% DMSO solution was added to the control wells. • b) 2 μL of the pre-prepared TK-biotin substrate solution at the corresponding concentration for the kinase was added to all reaction wells. • c) 2 μL of the pre-prepared enzyme solution at the corresponding concentration was added to all reaction wells except the negative control wells. For the negative control wells, 2 μL of 1× kinase buffer corresponding to the enzyme was added to make up the volume. The plate was sealed with sealing film, mixed gently, and incubated at room temperature for 10 min to allow the compounds to fully interact with the enzyme. • d) 2 μL of the ATP solution at the corresponding concentration for the enzyme was added to all reaction wells to initiate the kinase reaction. ATP concentrations and reaction times for enzyme screening are shown in Table 26 • e) Five minutes before the end of the kinase reaction, the detection solution was prepared. The detection buffer from the kit was used to prepare detection solutions for Streptavidin-XL665 and TK antibody europium cryptate (1:100) at the appropriate concentrations for the two enzymes. • f) After the kinase reaction was completed, 5 μL of the diluted Streptavidin-XL665 solution was added to all reaction wells. After mixing, the diluted TK antibody europium cryptate detection solution was immediately added. • g) The plate was sealed and mixed, incubated at room temperature for 1 hour, and the fluorescence signal was detected using the ENVISION (PerkinElmer) instrument (excitation at 320 nm, emission at 665 nm and 615 nm). The inhibition rate for each well was calculated based on the full-activity control wells and background signal wells, and the average value of the replicates was taken.

KDR (VEGFR2) = KDR (VEGFR2) (Homo sapiens, UniProt P35968); assay: KDR (VEGFR2) in vitro kinase activity assay (HTRF kinEASE TK); type: biochemical; settings: for inhibition at 0.01 µM: compound 10 nM, read-out: VEGFR2 inhibition rate, 10 nM; for inhibition at 0.1 µM: compound 100 nM, read-out: VEGFR2 inhibition rate, 100 nM
Sequence of KDR (VEGFR2) (P35968 20-1356): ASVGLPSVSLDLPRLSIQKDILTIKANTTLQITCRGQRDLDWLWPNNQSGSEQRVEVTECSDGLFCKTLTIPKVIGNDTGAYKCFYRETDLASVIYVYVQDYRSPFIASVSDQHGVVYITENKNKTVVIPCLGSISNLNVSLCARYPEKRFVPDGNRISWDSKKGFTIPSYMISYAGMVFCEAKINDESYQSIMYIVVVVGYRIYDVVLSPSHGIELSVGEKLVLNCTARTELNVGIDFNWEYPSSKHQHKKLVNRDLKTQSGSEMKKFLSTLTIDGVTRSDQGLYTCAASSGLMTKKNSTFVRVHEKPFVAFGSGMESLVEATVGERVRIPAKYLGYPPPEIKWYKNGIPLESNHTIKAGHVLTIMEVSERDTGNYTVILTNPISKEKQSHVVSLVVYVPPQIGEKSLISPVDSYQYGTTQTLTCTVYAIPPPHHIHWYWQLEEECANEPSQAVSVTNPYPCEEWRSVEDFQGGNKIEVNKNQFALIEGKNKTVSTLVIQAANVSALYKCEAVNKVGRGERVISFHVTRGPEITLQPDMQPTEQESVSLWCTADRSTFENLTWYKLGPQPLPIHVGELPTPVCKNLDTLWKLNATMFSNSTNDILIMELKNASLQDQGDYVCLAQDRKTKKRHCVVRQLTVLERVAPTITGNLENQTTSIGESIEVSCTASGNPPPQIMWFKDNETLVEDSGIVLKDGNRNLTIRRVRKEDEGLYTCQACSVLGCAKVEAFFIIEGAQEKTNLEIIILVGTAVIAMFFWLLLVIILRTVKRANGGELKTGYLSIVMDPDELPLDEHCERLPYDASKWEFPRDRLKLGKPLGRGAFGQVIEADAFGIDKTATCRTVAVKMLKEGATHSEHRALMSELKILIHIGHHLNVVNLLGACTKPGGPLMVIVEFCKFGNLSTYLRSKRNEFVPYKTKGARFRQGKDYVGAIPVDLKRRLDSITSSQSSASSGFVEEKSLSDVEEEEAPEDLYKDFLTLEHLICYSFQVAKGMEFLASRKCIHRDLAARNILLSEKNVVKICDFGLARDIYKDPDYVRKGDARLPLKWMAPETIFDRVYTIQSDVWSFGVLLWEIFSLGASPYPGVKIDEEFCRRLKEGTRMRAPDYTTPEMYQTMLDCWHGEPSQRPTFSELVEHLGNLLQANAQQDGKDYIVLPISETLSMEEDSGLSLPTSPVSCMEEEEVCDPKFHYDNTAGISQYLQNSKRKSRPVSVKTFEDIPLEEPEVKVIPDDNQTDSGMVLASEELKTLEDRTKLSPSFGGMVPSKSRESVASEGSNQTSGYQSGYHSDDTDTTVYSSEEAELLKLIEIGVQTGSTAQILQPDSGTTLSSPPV
From the text: as §1, §2, §3, §4, §5, §6, §7

DDR1 = DDR1 (Homo sapiens, UniProt Q08345); assay: DDR1 in vitro kinase activity assay (LanthaScreen Eu-anti-GST antibody / Kinase Tracer 178); type: binding; settings: for inhibition at 0.01 µM: compound 10 nM, read-out: DDR1 inhibition rate, 10 nM; for inhibition at 0.1 µM: compound 100 nM, read-out: DDR1 inhibition rate, 100 nM
Sequence of DDR1 (Q08345 19-913): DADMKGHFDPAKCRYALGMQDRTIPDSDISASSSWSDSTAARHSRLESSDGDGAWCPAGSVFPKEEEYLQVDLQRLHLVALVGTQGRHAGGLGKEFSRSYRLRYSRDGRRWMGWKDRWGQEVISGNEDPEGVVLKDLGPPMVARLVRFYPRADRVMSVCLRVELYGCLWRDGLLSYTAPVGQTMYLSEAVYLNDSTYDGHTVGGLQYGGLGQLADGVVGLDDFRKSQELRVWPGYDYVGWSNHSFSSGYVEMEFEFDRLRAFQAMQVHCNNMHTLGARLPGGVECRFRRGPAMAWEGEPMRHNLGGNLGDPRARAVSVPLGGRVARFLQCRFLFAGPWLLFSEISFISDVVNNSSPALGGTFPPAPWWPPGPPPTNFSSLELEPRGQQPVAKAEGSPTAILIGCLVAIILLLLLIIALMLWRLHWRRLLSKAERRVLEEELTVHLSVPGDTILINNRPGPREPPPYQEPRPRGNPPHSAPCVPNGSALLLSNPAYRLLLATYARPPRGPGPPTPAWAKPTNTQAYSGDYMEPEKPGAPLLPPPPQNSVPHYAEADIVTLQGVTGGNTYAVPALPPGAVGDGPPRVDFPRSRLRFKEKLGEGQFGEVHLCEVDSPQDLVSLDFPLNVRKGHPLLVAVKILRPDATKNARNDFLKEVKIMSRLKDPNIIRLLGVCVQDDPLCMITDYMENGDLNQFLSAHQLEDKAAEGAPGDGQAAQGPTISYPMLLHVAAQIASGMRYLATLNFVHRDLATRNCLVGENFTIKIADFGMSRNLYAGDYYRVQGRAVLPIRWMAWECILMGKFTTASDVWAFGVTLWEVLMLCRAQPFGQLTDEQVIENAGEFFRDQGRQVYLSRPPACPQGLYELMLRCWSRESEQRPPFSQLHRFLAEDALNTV
Method: DDR1 in vitro Kinase Activity Assay:
• ENVISION (Perkinelmer, 2104) • White 384-well MicroPlate (Cat #264706, Nunc) • DDR1 (Cat #PV6047, Invitrogen) • 5× Kinase Buffer A (Cat #PV3189, Invitrogen) • Kinase Tracer 178 (Cat #PV5593, Invitrogen) • LanthaScreen® Eu-anti-GST Antibody (Cat #PV5594, Invitrogen)
The compounds to be tested were tested at two concentrations of 100 nM and 10 nM.
Kinase/Antibody Mixtures Preparation: Dilute Kinase/Antibody Mixtures with 1× Kinase Buffer to form 3× working solutions with final concentrations of 5 nM kinase and 2 nM Eu-Anti-GST Antibody, respectively.
Kinase Tracer 178 Preparation: Dilute Kinase Tracer 178 with 1× Kinase Buffer to make a 3× working solution with a final concentration of 10 nM.
After all reagents were prepared according to the methods described above, except for the enzyme, they were equilibrated to room temperature before starting the sample addition. • a) First, 3% DMSO solutions were prepared separately using the pre-prepared 1× kinase buffer (DMSO concentrations that were too high could affect the reaction, so the final concentration of DMSO was controlled at 1%). Then, the corresponding 3% DMSO solution for the enzyme was used to dilute the test compounds. Compounds were screened with two concentrations of 100 nM and 10 nM. Except for the control wells, 5 μL of the diluted test compound solution was added to the reaction wells, and 5 μL of the pre-prepared 3% DMSO solution was added to the control wells. • b) 5 μL of the pre-prepared Kinase/Antibody mixtures was added to all reaction wells except the negative control wells. For the negative control wells, 5 μL of 1× kinase buffer corresponding to the enzyme was added to make up the volume. • c) 5 μL of the pre-prepared Kinase Tracer 178 solution was added to all reaction wells. • d) The plate was sealed and mixed, incubated at room temperature for 1 hour, and the fluorescence signal was detected using the ENVISION (PerkinElmer) instrument (excitation at 340 nm, emission at 665 nm and 615 nm). The inhibition rate for each well was calculated based on the full-activity control wells and background signal wells, and the average value of the replicates was taken.

| inhibition at 0.01 µM (CSF-1R) | inhibition at 0.1 µM (CSF-1R) | inhibition at 0.01 µM (KDR (VEGFR2)) | inhibition at 0.1 µM (KDR (VEGFR2)) | inhibition at 0.01 µM (DDR1) | inhibition at 0.1 µM (DDR1) | Compound |
| --- | --- | --- | --- | --- | --- | --- |
| 34% | 96.7% | 52.5% | 96.4% | 32.4% | 86% | CN(c1cncc(-c2cnn(C)c2)c1)[C@H]1CCc2c(C(=O)Nc3cccc(C4CC4)c3)cccc21 [Compound 22a, (S)—N-(3-cyclopropylphenyl)-1-(methyl (5-(1-methyl-1H-pyrazol-4-yl)pyridin-3-yl)amino)-2,3-dihydro-1H-indene-4-carboxamide] |
| 75.2% | 95.8% | 88.9% | 100% | 92.1% | 101% | Cn1cc(-c2cncc(N[C@H]3CCc4c(C(=O)Nc5nn(C)c6ccccc56)cccc43)n2)cn1 [Compound 27g, (S)—N-(1-methyl-1H-indazol-3-yl)-1-((6-(1-methyl-1H-pyrazol-4-yl)pyrazin-2-yl)amino)-2,3-dihydro-1H-indene-4-carboxamide] |
| 70.2% | 101% | 68.3% | 100% | 72.5% | 103% | Cn1ncc2ncc(N[C@H]3CCc4c(C(=O)Nc5cccc(C6CC6)c5)cccc43)cc21 [Compound 73, (S)—N-(3-cyclopropylphenyl)-1-((1-methyl-1H-pyrazolo[4,3-b]pyridin-6-yl)amino)-2,3-dihydro-1H-indene-4-carboxamide] |
| 72.6% | 96.3% | 60.3% | 94.9% | 57.2% | 99.9% | Cn1cc2ncc(N[C@H]3CCc4c(C(=O)Nc5nc(C6CC6)cs5)cccc43)cc2n1 [Compound 74h, (S)—N-(4-cyclopropylthiazol-2-yl)-1-((2-methyl-2H-pyrazolo[4,3-b]pyridin-6-yl)amino)-2,3-dihydro-1H-indene-4-carboxamide] |
| 71.9% | 97.3% | 85.4% | 98.3% | 72.5% | 103% | Cn1ncc2ncc(O[C@H]3CCc4c(C(=O)Nc5cncc(Cl)c5)cccc43)cc21 [Compound 76ac, (S)—N-(5-chloropyridin-3-yl)-1-((1-methyl-1H-pyrazolo[4,3-b]pyridin-6-yl)oxy)-2,3-dihydro-1H-indene-4-carboxamide] |

The next lines start with the compound.

| Compound | inhibition at 0.01 µM (CSF-1R) | inhibition at 0.1 µM (CSF-1R) | inhibition at 0.01 µM (KDR (VEGFR2)) | inhibition at 0.1 µM (KDR (VEGFR2)) | inhibition at 0.01 µM (DDR1) | inhibition at 0.1 µM (DDR1) |
| --- | --- | --- | --- | --- | --- | --- |
| Cn1cc(-c2cncc(N[C@H]3CCc4c(Nc5cc(C(C)(C)C)on5)cccc43)c2)cn1 [Compound 41, (S)—N^4-(5-(tert-butyl)isoxazol-3-yl)-N^1-(5-(1-methyl-1H-pyrazol-4-yl)pyridin-3-yl)-2,3-dihydro-1H-indene-1,4-diamine] | 26.9% | 100% | 18.6% | 63.9% | 20.2% | 78.2% |
| Cn1cc(-c2cncc(N[C@H]3CCc4c(Nc5noc(C(C)(C)C)n5)cccc43)c2)cn1 [Compound 42o] | 55.8% | 100% | 28.9% | 65.6% | 4.1% | 67.6% |
| Cn1cc2ncc(O[C@H]3CCc4c(C(=O)Nc5cncc(Cl)c5)cccc43)cc2n1 [Compound 76ai] | 78.2% | 99.1% | 96.5% | 102% | 94.2% | 99.6% |
| Cn1cc2ncc(O[C@H]3CCc4c(C(=O)Nc5nn(C)c6ccccc56)cccc43)cc2n1 [Compound 76al] | 105% | 103% | 99.1% | 95.6% | 98% | 98.5% |
| Cn1cc2ncc(O[C@H]3CCc4c(C(=O)Nc5nn(C)c6cccc(F)c56)cccc43)cc2n1 [Compound 76aw] | 65.1% | 99.1% | 89.9% | 101% | 64% | 93.6% |
| Cc1cccc(NC(=O)c2cccc3c2CC[C@@H]3Oc2cnc3cn(C)nc3c2)n1 [Compound 76bd] | 15.3% | 94.1% | 93.2% | 97% | 21.2% | 69.7% |
| CN(c1cnc2cn(C)nc2c1)[C@H]1CCc2c(C(=O)Nc3cncc(Cl)c3)cccc21 [Compound 80k] | 73.7% | 96.5% | 43% | 91.9% | 14.7% | 83.9% |
| CN(c1cnc2cn(C)nc2c1)[C@H]1CCc2c(C(=O)Nc3nn(C)c4ccccc34)cccc21 [Compound 80l] | 24.3% | 98.4% | 95% | 100% | 75.1% | 97.9% |
| Cn1ncc2ncc(N[C@H]3CCc4c(Nc5cc(C(C)(C)C)on5)cccc43)nc21 [Compound 86, (S)—N^4-(5-(tert-butyl)isoxazol-3-yl)-N1-(1-methyl-1H-pyrazolo[3,4-b]pyrazin-6-yl)-2,3-dihydro-1H-indene-1,4-diamine] | 46.6% | 95.9% | 12.9% | 70.1% | 20% | 98.4% |
